For one assay, the system named is T24 cells. Briefly: Potency assay (SRB), XVir-N-31, Palbociclib and JQ-1. It counts as cell-based, human. Here is the method:
5000 T24 cells were seeded in 12 well plates and grown in 1 ml RPMI-Medium containing 10% FCS. Next day cells were treated with 500 nM Palbociclib and 300 nM JQ-1. 24 hours post treatment cells were infected with indicated MOIs of XVir-N-31 in 200 μl RPMI-Medium containing no FCS. After 1 hour 800 μl RPMI-Medium containing 10% FCS were added into each well. In addition, 500 nM Palbociclib and 300 nM JQ-1 were added to the medium. SRB-Staining took place 5 days post infection. Mock treated cells were set 100% cell survival.

Assay [1] concerns XVir-N-31. Briefly: XVir-N-31 fiber DNA qPCR in glioblastoma cells, JQ1 and Ribociclib. It counts as cell-based, Mastadenovirus, Type C, Serotype 5. Particulars: U87 24 h.p.i., LN229 and T98G 48 h.p.i. Here is the method: 1×10^5 cells were seeded in 6 well plates in DMEM medium. The following day the cells were treated with the 500 nM LEE011 and 50 nM JQ1. At the next morning the cells were infected with 20 MOI for U87 and LN229, and 50 MOI for T98G respectively. One hour after infection DMEM Medium containing the inhibitors was added onto the cells. After each time point (4, 24, 48 hours) the cells were washed once with PBS and 200 μl of SDS DNA Lysis Buffer was added. The cells were incubated with Proteinase K for 1 hour before undergoing a phenol-chloroform-isoamylalcohol purification. The DNA was diluted in 1×TE buffer and the concentration of the DNA was determined using a Nanodrop. For each sample a solution of 10 ng/μl was prepared and a RT-qPCR using 50 ng of DNA and a GoTaq Master mix. Specific Fiber forward and reverse primers were used and for the calculation of the Δ ct value specific Actin primers were used as well. For each sample 3 Fiber and 2 Actin values were measured. The calculation was done in excel and each 24 and 48 hours was calculated based on its 4 hours value (initial viral entry, before replication).

Assay [2] deals with XVir-N-31. In words: XVir-N-31 replication in UMUC-3 cells, JQ-1 priming or concurrent treatment (fiber qPCR). It counts as cell-based, Mastadenovirus, Type C, Serotype 5. As to conditions: UMUC-3, 10 MOI, 100 nM or 500 nM JQ-1, 24 hours post infection. The procedure: 2.5×10^4 UMUC-3 cells were seeded in 12 well plates in DMEM medium. The following day the cells were treated with JQ-1 (priming) or DMEM medium. At the next morning the cells were infected with 10 MOI XVir-N-31. One hour after infection DMEM Medium containing JQ-1 was added on the cells (concurrent treatment). After each 4 and 24 hours, the cells were washed once with PBS and 200 μl of SDS DNA Lysis Buffer was added. The cells were incubated with Proteinase K for at least 1 hour before undergoing a phenol-chloroform-isoamylalcohol purification. The DNA was diluted in 1×TE buffer and the concentration of the DNA was determined using a Nanodrop. For each sample a solution of 15 ng/μl was prepared and a RT-qPCR using 75 ng of DNA and a GoTaq Master mix. Specific fiber forward and reverse primers were used and for the calculation of the Δ ct value specific Actin primers were used as well. For each sample 3 Fiber and 3 Actin values were measured. The calculation was done in excel and each 24 hours value was calculated based on its 4 hours value (initial viral entry, before replication).

For assay [3], the system named is XVir-N-31. Briefly: Hexon Titer test, particle formation of XVir-N-31 in UMUC-3 cells. It counts as cell-based, Mastadenovirus, Type C, Serotype 5. The procedure:
The production of viral particles was analyzed via immunohistochemistry-staining of hexon proteins (Hexon Titer test). Therefor, 2×10^5 adherent HEK293 cells per well were seeded in 24-well plates. Cell cultures samples collected after indicated time-points post infection and indicated co-treatment with JQ-1 were pretreated with three cycles thaw-freeze to release viral particles from cells and then serially diluted. The HEK293 cells were infected in volumes of either 50 μl or 10 μl per sample. The plates were then incubated for 40 h at 37° C. and 10% CO2 before checking for detectable cytopathic effects. The medium was aspirated, and the plates were dried for 5-10 min before fixing the cells by adding ice-cold methanol for 10 min at −20° C. The wells were washed twice with PBS+1% BSA. The primary antibody (goat anti-hexon, 1:500) was added and the plates were incubated for 1 h at 37° C. before washing it twice with PBS+1% BSA. Next, the secondary antibody (Rabbit Anti-Goat HRP conjugate, 1:1000) was added and incubated for 1 h at 37° C. Again, the wells were washed twice with PBS containing 1% BSA before the DAB solution was added. After 30 min incubation, 10 different random fields of view (f.o.v.) per well were counted under the 20× objective of a microscope. Counting iterations were averaged and according to this formula, infectious particles per ml were calculated: […]

The subject of a further assay is UMUC-3 and RT112. In words: FACS cell cycle analysis, JQ-1 and Palbociclib. Particulars: 100 or 300 nM JQ-1, 500 nM Palbociclib. It counts as cell-based, human. Here is the method: For such purpose, 5×10^4 cells UMUC-3 and RT112, respectively, were seeded in 6-well plates and 24 hours later treated with appropriate inhibitors. 1 day later, at approximately 80% confluency, cells were washed with PBS, trypsinized, washed again and fixated with icecold 80% ethanol. For cell cycle analysis, samples were incubated with the DNA-intercalating dye 7-aminoactinomycine D (7-AAD) and measured via FACS analysis. Evaluation of measured data was performed via the software FlowJo.

Assay [4] relates to RB, phospho-RB, E2F-1, Hexim1. Briefly: Western blot of cellular target proteins after JQ-1 and Palbociclib. It counts as cell-based, human. Here is the method:
1-2×10^6 UMUC-3 or RT-112 cells were seeded in 10 cm plates in DMEM medium and 24 hours post seeding treated with respective small molecular inhibitors. 24 hours post treatment, lysates of total proteins were taken using an SDS-buffer. BCA Assay was applied to adjust equivalent protein concentrations. Then, protein samples were supplemented with Lämmli buffer and separated via SDS-PA gelelectrophoresis on 10% PA-Gels. Samples were blotted onto PVDF membranes using a BioRAD Wet Tank System. These membranes were blocked with TBS-Tween buffer containing 5% Skim milk powder for 1 hour at room temperature. Incubation with primary antibodies was conducted over night at 4° C. and with HRP-conjugated secondary antibodies for 1 hour at room temperature. Chemiluminescence was detected using ECL prime (Pierce) with the ChemiDoc Imaging System (BioRad). Figures were designed in Adobe® Illustrator and evaluation was performed with ImageLab.

Consider `Cc1sc2c(c1C)C(c1ccc(Cl)cc1)=N[C@@H](CC(=O)OC(C)(C)C)c1nnc(C)n1-2` [JQ-1, thieno-triazolo-1-4-diazepine], for which the “cell killing of XVir-N-31, JQ-1 monotherapy” value in the assay with T24 cells (T24, 300 nM JQ-1 alone, 10 and 20 MOI) was “did not increase cell killing”. The “cell killing capacity of XVir-N-31 in combination with Palbociclib” value in the assay on T24 cells (T24, 500 nM Palbociclib, 300 nM JQ-1, low MOIs, 5 days post infection) was “increased the cell killing capacity”. Further, the “XVir-N-31 replication (relative fiber DNA)” value in the assay on XVir-N-31 [1] is reported as “high increase in replication”. In the assay with XVir-N-31 [2], the “XVir-N-31 replication, concurrent treatment with JQ-1” value is “crucial for dual therapy success” and the “XVir-N-31 replication, priming with JQ-1” value is “no beneficial effect”. For the same compound, in the assay on XVir-N-31 [3] (500 nM JQ-1, 39, 49, 62 or 72 hpi), the “particle formation of XVir-N-31” value is “significantly increased”. The “kinetic of XVir-N-31's particle formation” value with XVir-N-31 [3] (concurrent treatment with 500 nM JQ-1) was “highly accelerated”. Further, the cell cycle entry with UMUC-3 and RT112 is reported as “no significant influence on the cell cycle”. Besides, in assay [4] (UMUC-3 and RT-112, 0.2 μM and 0.5 μM, 24 hours post treatment, monotherapy or with Palbociclib), the “RB, phospho-RB or E2F-1 protein level” value is reported as “did not show any effects”. In addition, in assay [4] (UMUC-3 and RT-112, 24 hours post treatment), the Hexim1 entry is reported as “downregulated”.

The values above are taken from US20220354911A1, “TREATMENT OF TUMORS BY A COMBINATION OF AN ONCOLYTIC ADENOVIRUS, A CDK4/6 INHIBITOR AND A FURTHER THERAPEUTICALLY ACTIVE AGENT” (KLINIKUM RECHTS DER ISAR DER TECHNISCHEN UNIVERSITÄT MÜNCHEN, priority 2019, published 2022).
